Measurements: patent publication US20260294995A1, “COMPOSITION FOR ORAL USE WITH HMG-COA REDUCTASE ENZYME INHIBITING ACTIVITY” (DIFASS INTERNATIONAL S.P.A., priority 2023, published 2026)
Blank lines part the entries; values can stand above or below the compound they belong to.

Tests used:
HMG-CoA reductase [1] = molecular target: T1, HMG-CoA reductase (Homo sapiens, UniProt P04035); assay: HMG-CoA reductase inhibition, spectrophotometric (absorbance at 340 nm, oxidation of NADPH); format: biochemical; details: for Percentage inhibition HMGR: positive control
T1 construct: oxidation of NADPH by the catalytic subunit of HMG-CoA reductase; purchased
T1 sequence (P04035 426-888 limits assumed): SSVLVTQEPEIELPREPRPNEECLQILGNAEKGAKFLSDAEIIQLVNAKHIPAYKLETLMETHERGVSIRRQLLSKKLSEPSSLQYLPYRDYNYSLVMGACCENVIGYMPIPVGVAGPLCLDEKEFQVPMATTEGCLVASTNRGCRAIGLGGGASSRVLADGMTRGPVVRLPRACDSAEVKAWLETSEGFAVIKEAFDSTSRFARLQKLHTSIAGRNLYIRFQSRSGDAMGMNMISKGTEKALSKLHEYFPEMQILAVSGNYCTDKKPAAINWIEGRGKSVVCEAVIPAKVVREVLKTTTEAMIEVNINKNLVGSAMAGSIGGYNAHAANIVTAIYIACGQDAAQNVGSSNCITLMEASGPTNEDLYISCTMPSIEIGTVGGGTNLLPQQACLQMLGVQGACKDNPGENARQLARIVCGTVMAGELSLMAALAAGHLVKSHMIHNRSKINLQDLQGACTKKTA
Procedure: The screening was performed with an analysis kit that evaluates inhibition of HMG-CoA reductase. The assay was based on spectrophotometric measurement of the reduction of absorbance at 340 nm, which represents oxidation of NADPH by the catalytic subunit of HMG-CoA reductase in the presence of the HMG-COA substrate. The reaction is as follows: HMG-CoA+2NADPH+2H^+ ? mevalonate+2NADP^++CoA-SH. Modulation of the activity of the enzyme, and in particular its inhibition, was calculated as % variation relative to the activity measured under the control condition, i.e. in the absence of any inhibitor. The biochemical system was verified with the use of a positive control, pravastatin, at the doses of 212.5 mg (100 mM), 80 mg, 40 mg and 20 mg.
A first test session was conducted with pravastatin as positive control at the theoretical concentration calculated as administration dose in the systemic circulation (5 L, mean blood volume of an adult weighing about 70 kg);
Each test was conducted in triplicate, and the compounds were tested at different concentrations. […]

[2] = 2022 meta-analysis; dose an essential factor; cited from earlier work
[3] = 250 mg daily for three months, patients with metabolic syndrome; cited from earlier work
HMG-CoA reductase [4] = molecular target: T2, HMG-CoA reductase (Rattus norvegicus, UniProt P51639); details: 25 μM; glial cells; cited from earlier work
T2 construct: in an in vitro model with glial cells; host or cells: C6 glioma cells (endogenous enzyme, inferred)
T2 sequence (P51639 1-887): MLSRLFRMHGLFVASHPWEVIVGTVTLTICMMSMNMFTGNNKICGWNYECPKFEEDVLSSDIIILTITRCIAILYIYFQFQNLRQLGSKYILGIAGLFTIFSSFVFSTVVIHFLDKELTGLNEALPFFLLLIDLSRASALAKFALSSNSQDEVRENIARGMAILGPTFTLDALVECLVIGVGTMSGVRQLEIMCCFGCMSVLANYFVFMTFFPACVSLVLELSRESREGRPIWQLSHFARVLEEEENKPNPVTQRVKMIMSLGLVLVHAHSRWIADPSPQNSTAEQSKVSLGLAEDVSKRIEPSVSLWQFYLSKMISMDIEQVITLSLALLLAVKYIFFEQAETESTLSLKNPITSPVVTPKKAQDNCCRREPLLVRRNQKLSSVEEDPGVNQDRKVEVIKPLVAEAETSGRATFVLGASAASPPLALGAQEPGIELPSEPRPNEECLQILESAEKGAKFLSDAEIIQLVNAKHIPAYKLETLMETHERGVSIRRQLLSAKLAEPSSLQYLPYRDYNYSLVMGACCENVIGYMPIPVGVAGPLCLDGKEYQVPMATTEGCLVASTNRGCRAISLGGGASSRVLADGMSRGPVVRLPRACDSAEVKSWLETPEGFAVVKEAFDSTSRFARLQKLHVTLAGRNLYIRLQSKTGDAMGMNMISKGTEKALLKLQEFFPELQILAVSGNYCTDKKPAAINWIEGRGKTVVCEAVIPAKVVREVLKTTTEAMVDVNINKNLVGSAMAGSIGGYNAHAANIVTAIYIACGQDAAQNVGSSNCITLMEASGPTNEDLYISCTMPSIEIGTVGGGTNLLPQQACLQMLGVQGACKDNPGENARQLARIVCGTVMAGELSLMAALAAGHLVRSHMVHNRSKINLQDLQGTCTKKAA

HMG-CoA reductase [5] = molecular target: T3, HMG-CoA reductase (Homo sapiens, UniProt P04035); details: 10 μg/mL; compared with pravastatin; cited from earlier work
T3 sequence (P04035 1-888): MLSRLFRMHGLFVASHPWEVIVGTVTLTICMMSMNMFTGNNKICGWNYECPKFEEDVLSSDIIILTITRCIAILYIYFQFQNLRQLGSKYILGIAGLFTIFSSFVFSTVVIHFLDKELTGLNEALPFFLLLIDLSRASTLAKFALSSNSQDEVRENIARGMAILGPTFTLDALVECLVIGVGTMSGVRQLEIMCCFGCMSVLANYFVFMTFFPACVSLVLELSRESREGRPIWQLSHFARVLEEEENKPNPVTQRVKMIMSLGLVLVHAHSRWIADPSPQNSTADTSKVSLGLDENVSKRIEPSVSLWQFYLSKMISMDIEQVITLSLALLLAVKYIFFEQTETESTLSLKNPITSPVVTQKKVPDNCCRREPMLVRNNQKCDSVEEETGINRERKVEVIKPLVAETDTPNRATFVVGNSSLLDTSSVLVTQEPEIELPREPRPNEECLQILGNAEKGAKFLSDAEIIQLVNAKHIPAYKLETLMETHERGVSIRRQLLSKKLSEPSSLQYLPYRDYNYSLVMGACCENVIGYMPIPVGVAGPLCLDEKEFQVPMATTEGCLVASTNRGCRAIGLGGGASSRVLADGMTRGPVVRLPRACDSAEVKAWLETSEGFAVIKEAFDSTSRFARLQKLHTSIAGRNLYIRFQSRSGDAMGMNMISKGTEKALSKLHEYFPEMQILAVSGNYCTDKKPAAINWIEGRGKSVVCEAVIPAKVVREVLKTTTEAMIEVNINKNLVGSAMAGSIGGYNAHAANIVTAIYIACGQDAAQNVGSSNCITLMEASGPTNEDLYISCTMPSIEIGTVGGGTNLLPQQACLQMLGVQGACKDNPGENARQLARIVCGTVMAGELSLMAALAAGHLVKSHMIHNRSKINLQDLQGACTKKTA

[6] = oral doses from 100 mg to 2800 mg; cited from earlier work
HMG-COA reductase [7] = details: rat hepatocytes, in vitro; cited from earlier work

inhibition at 0.0102 µg/mL (HMG-CoA reductase [1]; Test 1, 0.0102 μg/ml, 1:200 dilution, oral dose 10 mg, read-out: Percentage inhibition HMGR): 0%
SMILES: Oc1ccc(C=Cc2cc(O)cc(O)c2)cc1 [Resveratrol, resveratrol]
total cholesterol and LDL cholesterol levels [2]: can be useful to reduce total cholesterol and LDL cholesterol levels | total cholesterol level [3]: reduces the total cholesterol level

Percentage inhibition HMGR (HMG-CoA reductase [1]; 20 mg (theoretical concentration of dose in 5 L blood)): 56.3% | Percentage inhibition HMGR (HMG-CoA reductase [1]; 40 mg (theoretical concentration of dose in 5 L blood)): 68.9% | Percentage inhibition HMGR (HMG-CoA reductase [1]; 80 mg (theoretical concentration of dose in 5 L blood)): 85.9%
SMILES: CC[C@H](C)C(=O)O[C@H]1C[C@H](O)C=C2C=C[C@H](C)[C@H](CC[C@@H](O)C[C@@H](O)CC(=O)O)[C@H]21 [Pravastatin, pravastatin]

SMILES: OCCc1ccc(O)c(O)c1 [hydroxytyrosol]
reduction of HMG-COA reductase activity (HMG-CoA reductase [4]): 16% | synthesis of fatty acids and cholesterol (HMG-CoA reductase [4]): downregulating effect

SMILES: O=C(O)[C@H]1O[C@@H](Oc2cc3oc(-c4ccccc4)cc(=O)c3c(O)c2O)[C@H](O)[C@@H](O)[C@@H]1O [baicalin]
HMG-COA reductase inhibitory activity (HMG-CoA reductase [5]): lower than with pravastatin | proportionality in absorption depending on the oral dose [6]: did not indicate a proportionality in absorption

SMILES: C/C=C1/[C@H](O[C@@H]2O[C@H](CO)[C@@H](O)[C@H](O)[C@H]2O)OC=C(C(=O)OC)[C@H]1CC(=O)OCCc1ccc(O)c(O)c1 [oleuropein]
activity of HMG-COA reductase (HMG-COA reductase [7]): reduces the activity of hydroxymethylglutaryl-CoA reductase | cholesterol synthesis (HMG-COA reductase [7]): reduction in cholesterol synthesis
